Reference: US20070213297A1, “Arrays with cleavable linkers” (priority 2004, published 2007)
Marks after values point to notes of the source that are not given here.

What was measured:
β3GlcNAcT = β3GlcNAcT acceptor specificity; type: biochemical, N. meningitidis; settings: as acceptor substrate; lactose (4) = 100%
Description: Both enzymes, β4GalT-GalE and β3GlcNAcT, were over expressed in E. coli AD202 in a large-scale fermentor (100 L). Bacteria were cultured in 2YT medium and induced with iso-propyl-thiogalactopyranoside (IPTG) to ultimately produce 8-10 g of bacterial cell paste/L cell media. The enzymes were then released from the cells by a microfluidizer and were solubilized in Tris buffer (25 mM, pH 7.5) containing manganese chloride (10 mM) and Triton X (0.25%) to reach enzymatic activities of about 50 U/L and 115 U/L of cell culture β4GalT-GalE and β3GlcNAcT, respectively.
The structures of these disaccharides are provided below. [drawing 17]
Adding the hydrophobic para-nitrophenyl ring as an aglycon to the reducing end of the acceptors enhanced the activity of the enzyme up to 10 fold (compare 4 with 5 and 6 with 7). The increase in the enzyme activity by adding a hydrophobic aglycon to the acceptor sugar, though to the lesser extent, has also been shown for β4GalT (compare 12 with 13, 14). The relaxed substrate specificity of these enzymes makes them very useful for preparative synthesis of various carbohydrate structures, including poly-N-acetyllactosamines.

chicken ST6GalNAc-I = target: T1, chicken ST6GalNAc-I (Gallus gallus, UniProt Q92183); test: chST6GalNAc-I activity on small acceptor molecules; type: biochemical; settings: α-D-galacto derivatives as acceptors
T1 construct: made in house; host or cells: insect cells
Source text: The inventors have previously reported the cloning, expression, and characterization of chicken ST6GalNAc-I and its use in preparative synthesis of the O-linked sialoside antigens, STn-, α(2-6)SiaT-, α(2-3)SiaT- and Di-SiaT-antigen. Blixt, O.; Allin, K.; Pereira, L.; Datta, A. and Paulson, J. C., J. Am. Chem. Soc. 2002, 124, 5739-5746. Briefly, the recombinant enzyme was expressed in insect cells and purified by CDP-sepharose affinity chromatography to generate approximately 10 U/L of cell culture.

2G12 anti-HIV antibody = test: 2G12 binding to glycan array printed on glass slide; set-up: species or system human; settings: for Rel. spec. (relative binding activity of 2G12): glass slide glycan array, 2G12 pre-complexed with anti-IgG-FITC; for 2G12 binding on glycan array (in words): initial experiments
Description: Construction of a glycan array printed on a glass slide: The library of carbohydrate structures was obtained through chemical and chemo-enzymatic synthesis as described above, as well as natural sources. This compound library contained a N-hydroxy succinimide (NHS)-reactive primary amino group, which was printed on a commercial NHS-activated glass surface (Accelr8 Technology Corporation, Denver, Colo.) using a microarray gene printer (TSRI).
Each glycan type was printed (≈0.5 nL/spot) at various concentrations (10-100 μM) and each concentration in a replicate of six. Slides were further incubated with ethanolamine buffer to deactivate remaining NHS functional groups.
The 2G12 antibody was pre-complexed (for 10 min) with secondary human anti-IgG-FITC (2:1, 20 μg/mL) prior to application to the glycan array. After incubation with the 2G12 antibodies, the array washed by dipping the slide in buffer and water.

2G12 antibody [1] = test: Carbohydrate microarray analysis of oligomannose-2G12 binding (microtiter plate); set-up: species or system human
Description: Carbohydrate microarray analysis. Ninety-six well NHS-coated microtiter plates (NoAb Biodiscoveries) were treated with 200 μL of a 1 mM methanolic solution of the amino-functionalized disulfide and alkyne containing linker (scheme V) containing 5% diisopropylethylamine (DIEA) and incubated overnight at 4° C. The microtiter plate was then washed with 2×200 μL methanol and 2×200 μL water. Next, 200 μL solutions of azido-functionalized oligomannose derivatives 21-25 at varying concentrations from 0 to 500 μM in 5% DIEA/methanol were introduced. A sprinkle of copper (I) iodide was added and the contents were allowed to react overnight at 4° C. The next day, the contents were removed and the plates were washed with 2×200 μL methanol and 2×200 μL water. The plates were then blocked with 0.1% Tween20 solution in HEPES buffer pH 7.5 at 4° C. for 1 hour and then washed with 3×200 μL HEPES buffer. […] Detection of the FITC-tagged secondary antibody was performed in 200 μL water using a fluorescence plate reader. […]
Carbohydrate Microarray Analysis. […] Kd values for the interaction of 2G12 with oligomannoses 4, 5, 7, 8, 9 (Table 9) were determined using a microtiter-based assay with detection via a fluorescent secondary antibody (see Bryan et al. (2004) J. Am. Chem. Soc. 126, 8640-41).

2G12 antibody [2] = test: 2G12 binding, cleavable linker glycan array in microtiter plates; set-up: species or system human
Description: Cleavable Linker Glycan Array in Microtiter Plates: Further experiments were performed using glycans immobilized within microtiter wells with the cleavable triazole linkers described in Example 7 as shown in FIG. 11.
2G12 Binding: After washing with QH2O, wells were blocked with 10 mM HEPES buffer, pH 7.5/150 mM NaCl buffer (200 μL) containing 0.1% Tween-20 over 1 h at 4° C. The buffer was then removed and 2G12 (17 μg/mL PBS buffer; 200 μL) was incubated in the well over 1 h at 4° C. Wells were then washed with PBS buffer (3×; 200 μL) and fluorescein-conjugated Goat Anti-Human IgG antibody (14 μg/mL PBS buffer; 200 μL) was incubated in the well over 1 h in the dark at 4° C. Wells were then washed with PBS buffer (3×; 200 μL) and fluorescence was measured with an excitation wavelength of 485 nm and emission wavelength of 535 nm.
Further studies were performed using a cleavable linker array to clarify the types of mannose-containing glycans bound by the 2G12 anti-HIV antibodies. […] The results of a binding study using increasing amounts of labeled Manα1,2Manα1,3Manα1,2 Manα1,6Man glycan with a constant amount of 2G12 antibody are shown in FIG. 16.

T1 sequence (Q92183 whole entry): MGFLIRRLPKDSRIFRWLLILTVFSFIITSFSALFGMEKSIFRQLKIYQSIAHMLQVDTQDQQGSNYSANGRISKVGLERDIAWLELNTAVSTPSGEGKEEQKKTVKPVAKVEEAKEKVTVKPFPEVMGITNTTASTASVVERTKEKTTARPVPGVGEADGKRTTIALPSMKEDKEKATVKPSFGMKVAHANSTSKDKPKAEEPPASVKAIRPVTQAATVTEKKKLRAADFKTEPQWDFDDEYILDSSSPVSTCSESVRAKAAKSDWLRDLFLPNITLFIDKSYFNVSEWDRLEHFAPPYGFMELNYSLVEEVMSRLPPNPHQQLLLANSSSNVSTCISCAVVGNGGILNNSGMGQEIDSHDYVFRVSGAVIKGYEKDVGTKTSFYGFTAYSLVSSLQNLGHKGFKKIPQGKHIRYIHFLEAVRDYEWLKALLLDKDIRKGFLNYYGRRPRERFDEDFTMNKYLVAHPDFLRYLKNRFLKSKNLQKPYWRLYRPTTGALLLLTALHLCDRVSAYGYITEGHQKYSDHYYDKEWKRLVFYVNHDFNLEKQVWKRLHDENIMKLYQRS

OCC1O[C@@H](O)C(O)[C@@H](O)[C@@H]1O[C@@H]1OC(CO)[C@H](O)[C@H](O)C1O (stereo partly shown) [Compound 4]
Relative enzyme activity (%) β(1-3)GlcNAcT-activity (β3GlcNAcT): 100% | chST6GalNAc-I activity, nmol/mg x min^−1 (chicken ST6GalNAc-I): 2.90 nmol/mg x min^−1 | Rel. spec. (relative binding activity of 2G12) (2G12 anti-HIV antibody): − (- = <1000)

O=[N+]([O-])c1ccc(O[C@@H]2OC(CO)[C@@H](O[C@@H]3OC(CO)[C@H](O)[C@H](O)C3O)[C@H](O)C2O)cc1 (stereo partly shown) [Compound 5]
chST6GalNAc-I activity, nmol/mg x min^−1 (chicken ST6GalNAc-I): 1.30 nmol/mg x min^−1 | Rel. spec. (relative binding activity of 2G12) (2G12 anti-HIV antibody): − (- = <1000)

CC(=O)N[C@H]1C(O)O[C@H](CO)[C@@H](O[C@@H]2O[C@H](CO)[C@H](O)[C@H](O)[C@H]2O)[C@@H]1O (stereo partly shown) [Compound 6]
Relative enzyme activity (%) β(1-3)GlcNAcT-activity (β3GlcNAcT): 7% | chST6GalNAc-I activity, nmol/mg x min^−1 (chicken ST6GalNAc-I): 12.50* nmol/mg x min^−1 | Rel. spec. (relative binding activity of 2G12) (2G12 anti-HIV antibody): − (- = <1000)

CC(=O)N[C@@H]1[C@@H](O)[C@@H](O)[C@@H](CO)O[C@@H]1O [D-GaINAc, reference compound]
chST6GalNAc-I activity, cpm (chicken ST6GalNAc-I): 0 cpm | chST6GalNAc-I activity, nmol/mg x min^−1 (chicken ST6GalNAc-I): 0.00 nmol/mg x min^−1

NCCCCCO[C@H]1O[C@H](CO[C@H]2O[C@H](CO)[C@@H](O)[C@H](O)[C@@H]2O[C@H]2O[C@H](CO)[C@@H](O)[C@H](O)[C@@H]2O)[C@@H](O)[C@H](O[C@H]2O[C@H](CO)[C@@H](O)[C@H](O)[C@@H]2O[C@H]2O[C@H](CO)[C@@H](O)[C@H](O)[C@@H]2O)[C@@H]1O [Oligomannose 5]
2G12 affinity ranking (in words) (2G12 antibody [1]): greatest affinity

Man-8#aa Man8-aminoacid [Glycan 144]
2G12 binding on glycan array (in words) (2G12 anti-HIV antibody): Binding was observed

Man-9#aa Man9-aminoacid [Glycan 145]
2G12 binding on glycan array (in words) (2G12 anti-HIV antibody): smaller level of binding

Manα1,2 Manα1,2 Manα1,3Man
2G12 epitope/affinity (in words) (2G12 antibody [2]): optimal epitope(s) with micromolar affinity to 2G12 | Kd (2G12 antibody [2]): 100 nM

Manα1,2Manα1,3Manα1,2 Manα1,6Man
2G12 epitope/affinity (in words) (2G12 antibody [2]): optimal epitope(s) with micromolar affinity to 2G12
